Experimental data as given in patent publication US20170114093A1, “Methods of Treatment and Prevention of Disease by Arginine-rich Compositions that Induce Cytoprotection and Neuroprotection” (priority 2015, published 2017).
Entries after “also recorded” stand apart in the source; their conditions may differ.

Columns and labels:
SAPK/JNK = assay: Western blot of phospho-SAPK/JNK (cell death signaling) in OGD-treated primary neuronal cultures; assay type: cell-based, rat; conditions: after OGD
Source text: JNK signaling is widely considered to be an indicator of cell death signaling.
Dissociated primary neuronal cell cultures treated in the same manner as indicated in Example 2 were collected and their cells lysed. Cellular proteins were precipitated and denatured for immunohistochemical analysis by Western Blot. Phospho-SAPK/JNK ([…]) antibody detects endogenous levels of p46 and p54 SAPK/JNK dually phosphorylated at threonine 183 and tyrosine 185. Levels of The stress-activated protein kinase/Jun-amino-terminal kinase SAPK/JNK are widely considered to be molecular sequelae of the activation of cell death pathways that lead to apoptosis.

[1] = test system: primary rat cortical neurons; assay: Oxygen glucose deprivation (OGD, 90 min) of primary neuronal cultures, cell viability by MTT reduction; assay type: cell-based; conditions: for level of protection from OGD, compared with Compound 4: 90 min OGD; for protection of cortical rat neurons from the impact of OGD (cell viability): pre-incubation 30 min before 90 min OGD, MTT
Method: FIGS. 1 and 2 are histograms showing the cell viability of primary rat cortical neurons that had been exposed to ninety (90) minutes oxygen glucose deprivation. Pre-incubation of an arginine-rich polypeptide [RRRRRRRRR (SEQ ID: 4)]
Dissociated primary neuronal cell cultures were prepared from rat brains at 37° C. in a humidified atmosphere containing 5% CO2 and […] and grown to confluence in glucose-containing media. Indicated compounds were applied thirty (30) minutes before cultures were placed in an environment of oxygen glucose deprivation (OGD). OGD was achieved using glucose-free media and a humidified atmosphere containing 5% CO2 and 95% N2. OGD was continued for ninety (90) minutes and terminated by return to baseline conditions with glucose and O2 restored. Reduction of 3-(4,5-dimethyl-2-thiazolyl)-2,5-diphenyltetrazolium bromide (MTT) by cellular dehydrogenases measured mitochondrial activity and cell health. […] This model is a dissociated cell preparation, therefore vasculature is absent, therefore the activity of Compound 4 (SEQ ID NO: 4), an inventive Arginine rich polypeptide, is shown to be independent of changes to vascular tone and indicates protection from a novel mechanism of action.

Which results are given for `C[C@H](NC(c1cccc2[nH]c(=O)c(=O)[nH]c12)P(=O)(O)O)c1ccc(Br)cc1` (some centres unmarked) [NVPAAM077]?
level of JNK cell death signaling, compared with Compound 4 2 μM (SAPK/JNK; 100 nM): comparable; level of protection from OGD, compared with Compound 4 ([1]; 100 nM): comparable

What does the source list for `C[C@@H]([C@@H](O)c1ccc(O)cc1)N1CCC(O)(c2ccccc2)CC1` [CP 101 606]?
level of JNK cell death signaling, compared with Compound 4 2 μM (SAPK/JNK; 10 μM): comparable; level of protection from OGD, compared with Compound 4 ([1]; 10 μM): comparable

What does the source list for “RRRRRRRRR (cell penetrating peptide) [Compound 4]”?
p54 and p48 JNK cell death signaling (Western blot) (SAPK/JNK; 2 μM, p<0.05, n=3): significantly suppressed; protection of cortical rat neurons from the impact of OGD (cell viability) ([1]; 2 μM): significant protection; protection of cortical rat neurons from the impact of OGD (cell viability) ([1]; 10 μM): significant protection

Which results are given for “CCRRRRRRR [Control peptide; cysteine-arginine peptide of the kind claimed in WO2013158739]”?
protection of cortical rat neurons from the impact of OGD (cell viability) ([1]; 2 μM): no significant neuroprotection; also recorded: no significant neuroprotective effect; protection of cortical rat neurons from the impact of OGD (cell viability) ([1]; 2 μM, listed as ccrrrrrrr): no significant neuroprotection; also recorded: no significant neuroprotective effect; protection of cortical rat neurons from the impact of OGD (cell viability) ([1]; 10 μM): no significant neuroprotection; also recorded: no significant neuroprotective effect; protection of cortical rat neurons from the impact of OGD (cell viability) ([1]; 10 μM, listed as ccrrrrrrr): no significant neuroprotection; also recorded: no significant neuroprotective effect
